The test system of this series is tobacco budworm (Heliothis virescens). As to conditions: in vivo. How it is done:
See Index Table A for compound descriptions. The following abbreviations are used in the Index Table that follows: n is normal, i is iso, Pr […], and Ph is phenyl. The abbreviation “Ex.” stands for “Example” and is followed by a number indicating in which example the compound is prepared.
Test units, each consisting of a H.I.S. (high impact styrene) tray with 16 cells were prepared. Wet filter paper and approximately 8 cm^2 of lima bean leaf were placed into twelve of the cells. A 0.5-cm layer of wheat germ diet was placed into the four remaining cells. Fifteen to twenty third-instar larvae of fall armyworm (Spodoptera frugiperda) were placed into a 230-mL (8-ounce) plastic cup. Solutions of each of the test compounds in 75:25 acetone-distilled water solvent were sprayed into the tray and cup. Spraying was accomplished by passing the tray and cup on a conveyer belt directly beneath a flat fan hydraulic nozzle which discharged the spray at a rate of 0.138 kilograms of active ingredient per hectare (about 0.13 pounds per acre) at 207 kPa (30 p.s.i.). The insects were transferred from the 230-mL cup to the H.I.S. tray (one insect per cell). The trays were covered and held at 27° C. and 50% relative humidity for 48 hours, after which time readings were taken on the twelve cells with lima bean leaves. The four remaining cells were read at 6-8 days for delayed toxicity.
The test procedure of TEST A was repeated for determining efficacy against third-instar larvae of the tobacco budworm (Heliothis virescens) except that three 230-mL (8-ounce) plastic cups with wheat germ diet were used in place of the H.I.S. tray, with each cup pre-infected with five third-instar larvae.
For the molecule `CCCC12Cc3cc(Cl)ccc3C1=NC(C(=O)Nc1ccc(Br)cc1)=NN2` (stereo not drawn) [Compound 2], the mortality levels is on record as at least 80%.
For `CCCC12Cc3cc(Cl)ccc3C1=NC(C(=O)Nc1ccc(C(F)(F)F)cc1)=NN2C` (stereo not drawn) [Compound 5] the value was at least 80%; for `CCCC12Cc3cc(Cl)ccc3C1=NC(C(=O)Nc1ccc(OC(F)(F)F)cc1)=NN2C` (stereo not drawn) [Compound 6], at least 80%.
Turning to `CCCC12Cc3cc(C(F)(F)F)ccc3C1=NC(C(=O)Nc1ccc(C(F)(F)F)cc1)=NN2C` (stereo not drawn) [Compound 7], the mortality levels was at least 80%.
In turn, `CCCC12Cc3cc(C(F)(F)F)ccc3C1=NC(C(=O)Nc1ccc(OC(F)(F)F)cc1)=NN2C` (stereo not drawn) [Compound 8] had a mortality levels of at least 80%.
For `CN1N=C(C(=O)Nc2ccc(C(F)(F)F)cc2)N=C2c3ccc(C(F)(F)F)cc3CC21C` (stereo not drawn) [Compound 9], the mortality levels is recorded as at least 80%.
The result for `CN1N=C(C(=O)Nc2ccc(OC(F)(F)F)cc2)N=C2c3ccc(C(F)(F)F)cc3CC21C` (stereo not drawn) [Compound 10] reads at least 80%.
As for `CCCC12Cc3cc(C(F)(F)F)ccc3C1=NC(C(=O)Nc1ccc(C(F)(F)F)cc1)=NN2C(C)=O` (stereo not drawn) [Compound 11], the mortality levels is given as at least 80%.
The result for `CCCC12Cc3cc(C(F)(F)F)ccc3C1=NC(C(=O)Nc1ccc(OC(F)(F)F)cc1)=NN2C(C)=O` (stereo not drawn) [Compound 12] reads at least 80%; that for `O=C(Nc1ccc(OC(F)(F)F)cc1)C1=NNC2(c3ccc(F)cc3)Cc3cc(F)ccc3C2=N1` (stereo not drawn) [Compound 13], at least 80%; that for `CC12Cc3cc(F)ccc3C1=NC(C(=O)Nc1ccc(OC(F)(F)F)cc1)=NN2` (stereo not drawn) [Compound 14], at least 80%.
For `CC(C)C12Cc3cc(Cl)ccc3C1=NC(C(=O)Nc1ccc(OC(F)(F)F)cc1)=NN2` (stereo not drawn) [Compound 15] the value was at least 80%.
For `COC(=O)N1N=C(C(=O)Nc2ccc(OC(F)(F)F)cc2)N=C2c3ccc(F)cc3CC21c1ccc(F)cc1` (stereo not drawn) [Compound 16] the value was at least 80%.
The molecule `CN1N=C(C(=O)Nc2ccc(OC(F)(F)F)cc2)N=C2c3ccc(F)cc3CC21C` (stereo not drawn) [Compound 17] gave a mortality levels of at least 80%.
Molecule `CN1N=C(C(=O)Nc2ccc(C(F)(F)F)cc2)N=C2c3ccc(F)cc3CC21C` (stereo not drawn) [Compound 19] came in with a mortality levels of at least 80%.
For `CCCC12Cc3cc(Cl)ccc3C1=NC(C(=O)Nc1ccc(SC(F)(F)F)cc1)=NN2` (stereo not drawn) [Compound 20] the value was at least 80%.
For `CCCC12Cc3cc(C(F)(F)F)ccc3C1=NC(C(=O)Nc1ccc(SC(F)(F)F)cc1)=NN2` (stereo not drawn) [Compound 21] the value was at least 80%; for `O=C(Nc1ccc(SC(F)(F)F)cc1)C1=NNC2(c3ccc(F)cc3)Cc3cc(F)ccc3C2=N1` (stereo not drawn) [Compound 22], at least 80%.
